Patent US10738019B2, “Compound including basic dye and amino acid, hair dyeing dye, and hair dyeing composition” (HODOGAYA CHEMICAL CO., LTD., priority 2018, dated 2020)

Assay: Water solubility, foaming property and hair feel during hair dyeing
Format: physicochemical
Details: for hair dyeing (dyeing gel, pH 6 aqueous solution)
Protocol: Subsequently, Human White hair 100% BM-W manufactured by Beaulax Co., Ltd. was used as hair to be dyed. Two parts by mass of the dyeing gel was taken with respect to 1 part by mass of the hair and applied to the hair uniformly using a comb, and the hair was dyed at 40° C. for 10 minutes and washed with water.

Row | Structure (SMILES) | water solubility
1 | CC1=CC(=C(c2ccc(N)c(C)c2)c2ccc(N)c(C)c2)C=CC1=N [Compound (A-3)] | sufficient water solubility for hair dyeing
2 | C[N+](C)(C)c1ccc2ccc(O)c(N=Nc3ccc(N)cc3)c2c1 [Compound (A-5)] | sufficient water solubility for hair dyeing
